Tests used:
[1] = Biodistribution in rabbits: biological half life in the brain by gamma camera imaging; assay type: in vivo, Japanese white rabbits (male); conditions: for Biological half-life in brain, First phase / Biological half-life in brain, First phase (rate) / Biological half-life in brain, Second phase / Biological half-life in brain, Second phase (rate): rabbit, in vivo; for Accumulation in the cerebral parenchymal cells / biological half life in the brain, first phase / biological half life in the brain, second phase / rate of first phase of biological half life in the brain / rate of second phase of biological half life in the brain: rabbits, Example 10; for Accumulation in the cerebral parenchymal cells: imaging; for biological half life in the brain, first phase / biological half life in the brain, second phase / rate of first phase of biological half life in the brain / rate of second phase of biological half life in the brain: via the carotid artery
Experimental: Japanese white rabbits (male) were anesthetized with a pentobarbital solution (2.5 mg/kg), and Tc-99m(BI-11o) (0.2 ml, […]) was administered via the carotid artery under a gamma camera (GCA-90B, Toshiba Co., Ltd.). Then, imaging of 112 frames (30 seconds/frame) was made in minutes. A region of interest was drawn around brain on images, and the time-activitycurve of the brain was obtained.
It was thus concluded that the above examination procedure was suitable for evaluation of the accumulation in the brain and the disappearance from the brain.
In the same manner as in Example 10 using other technetium-99m-labeled polyaminedithiol compounds instead of Tc-99m-(BI-11o), their biodistribution in rabbits was examined, and their biological half-life in the brain was calculated.

[2] = Thin layer electrophoresis (EP) of technetium-99m-labeled compounds; assay type: physicochemical; conditions: Table 16, Tc-99m-labeled; 50 mM phosphate buffer pH 7.4, 0.5 mA/cm, room temperature, 15 minutes
Experimental: ZI. Thin layer electrophoresis for Tc-99m-(BI-11c)
An appropriate amount of Tc-99m-(BI-11c) was spotted on an acetylated cellulose membrane and subjected to electrophoresis using 50 mM phosphate buffer (pH, 7.4) as an electrode buffer at a constant current of 0.5 mA/cm and at room temperature for 15 minutes. In the same manner as in ZH, the membrane was scanned to determine the distribution of radioactivity with a thin layer radioachromatoscanner.
In the same manner as in Example 8 ZF, ZG, ZH and ZI but using other polyaminedithiol compounds instead of Compound (11c), preparation of non-radioactive carriers and radioactive diagnostic agents was made. The optimum labeling conditions for the polyaminedithiol compounds were studied. Furthermore, the physical characteristics of the produced technetium-99m-labeled polyaminedithiol compounds were evaluated.

[3] = system: normal cerebral parenchymal cells; conditions: in vivo; cited from earlier work

Compound | Biological half-life in brain, First phase [1] | Biological half-life in brain, First phase (rate) [1] | Biological half-life in brain, Second phase [1] | Biological half-life in brain, Second phase (rate) [1] | EP (Charge) [2] | Accumulation in the cerebral parenchymal cells [1] | biological half life in the brain, first phase [1] | biological half life in the brain, second phase [1] | rate of first phase of biological half life in the brain [1] | rate of second phase of biological half life in the brain [1] | accumulation in normal cerebral parenchymal cells [3]
CCCC(C)NCC(NCCNCC(C)(C)S)C(C)(C)S (centres unmarked) [Compound 11l, N-(2-Mercapto-2-methylpropyl)-N' -[1-(1-methylbutylamino)-methyl-2-mercapto-2-methylpropyl]ethylene-diamine] | 11 min | 34% | 132 min | 66% |  |  |  |  |  |  | 
CC(C)(S)CNCCNC(CN1CCCC1)C(C)(C)S (centres unmarked) [Compound 11r, N-(2-Mercapto-2-methylpropyl)-N'-(2-mercapto-2-methyl-1-pyrrolidinomethylpropyl)ethylenediamine] | 3 min | 28% | 36 min | 72% |  |  |  |  |  |  | 
CCCCCNCC(NCCNCC(C)(C)S)C(C)(C)S (centres unmarked) [Compound 11d, N-(2-Mercapto-2-methylpropyl)-N' -(1-n-amylaminomethyl-2-mercapto-2-methylpropyl)ethylenediamine] | 18 min | 32% | 184 min | 68% | .smallcircle. |  |  |  |  |  | 
CC(C)(S)C(CNCCCN1CCOCC1)NCCNC(CNCCCN1CCOCC1)C(C)(C)S (centres unmarked) [Compound 14s, N,N'-Bis[2-mercapto-2-methyl-1-(3-morpholinopropylamino)methyl-propyl]ethylenediamine] |  |  |  |  | .smallcircle. |  |  |  |  |  | 
CC(C)(S)CNCCNC(CN1CCNCC1)C(C)(C)S (centres unmarked) [Compound 11h, N-(2-Mercapto-2-methylpropyl)-N'-(2-mercapto-2-methyl-1-piperazinomethylpropyl)ethylenediamine] | 1 min | 44% | 40 min | 56% |  |  |  |  |  |  | 
CN1CCN(CC(NCCNCC(C)(C)S)C(C)(C)S)CC1 (centres unmarked) [Compound 11i, N-(2-Mercapto-2-methylpropyl)-N' -[2-mercapto-2-methyl-1-(4-methyl-piperazino)methylpropyl]ethylene-diamine] | 8 min | 50% | 686 min | 50% |  |  |  |  |  |  | 
CC(C)NC(C)Cc1ccc([123I])cc1 (centres unmarked) [Compound I-123-IMP, N-isopropyl-2-methyl-p-iodo(I-123)-phenethylamine, reference compound] |  |  |  |  |  | observed | 71 minutes | 98 minutes | 39% | 61% | 
CC(C)(S)CNCCNC(CN1CCC(c2ccccc2)CC1)C(C)(C)S (centres unmarked) [Compound 11x, N-(2-Mercapto-2-methylpropyl)-N'-[2-mercapto-2-methyl-1-(4-phenylpiperidino)methylpropyl]ethylenediamine] | 10 min | 46% | 150 min | 54% | .smallcircle. |  |  |  |  |  | 
CCCCCCNCC(NCCNCC(C)(C)S)C(C)(C)S (centres unmarked) [Compound 11m, N-(2-Mercapto-2-methylpropyl)-N' -(1-n-hexylaminomethyl-2-mercapto-2-methylpropyl)ethylenediamine] | 3 min | 24% | 58 min | 76% | .smallcircle. |  |  |  |  |  | 
CC(C)(S)CNCCNC(CN1CCCCC1)C(C)(C)S (centres unmarked) [Compound 11g, N-(2-Mercapto-2-methylpropyl)-N' -(2-mercapto-2-methyl-1-piperidino-methylpropyl)ethylenediamine] | 5 min | 23% | 60 min | 77% |  |  |  |  |  |  | 
CC(C)(S)CNCCNC(CN1CCN(Cc2ccccc2)CC1)C(C)(C)S (centres unmarked) [Compound 11w, N-(2-Mercapto-2-methylpropyl)-N'-[1-(4-benzylpiperazino)methyl-2-mercapto-2-methylpropyl]ethylenediamine] | 13 min | 60% | 144 min | 40% | .smallcircle. |  |  |  |  |  | 
CC1CCN(CC(NCCNCC(C)(C)S)C(C)(C)S)CC1 (centres unmarked) [Compound 11p, N-(2-Mercapto-2-methylpropyl)-N'-[2-mercapto-2-methyl-1-(4-methylpiperidino)methylpropyl]ethylenediamine] | 3 min | 18% | 83 min | 82% | .smallcircle. |  |  |  |  |  | 
CC(C)(S)C(CNCCN1CCOCC1)NCCNC(CNCCN1CCOCC1)C(C)(C)S (centres unmarked) [Compound 14r, N,N' -Bis[2-mercapto-2-methyl-1-(2-morpholinoethylamino)methylpropyl]-ethylenediamine] |  |  |  |  | .smallcircle. |  |  |  |  |  | 
O=C([O-])CN(CCN(CC(=O)[O-])CC(=O)[O-])CCN(CC(=O)[O-])CC(=O)[O-].[99Tc+4] [^99m Tc-DTPA, ^99m Tc-labeled diethylenetriaminepentaacetic acid, reference compound] |  |  |  |  |  | no accumulation was seen | 2 minutes | 18 minutes | 75% | 25% | not accumulating
CC(C)(S)CNCCNC(CN1CCOCC1)C(C)(C)S (centres unmarked) [Compound 11k, N-(2-Mercapto-2-methylpropyl)-N' -(2-mercapto-2-methyl-1-morpholino-methylpropyl)ethylenediamine] | 4 min | 39% | 21 min | 61% |  |  |  |  |  |  | 
CCCCN(CC)CC(NCCNCC(C)(C)S)C(C)(C)S (centres unmarked) [Compound 11n, N-(2-Mercapto-2-methylpropyl)-N' -[1-(N-butyl-N-ethylamino)-methyl-2-mercapto-2-methylpropyl]ethylenediamine] | 17 min | 42% | 198 min | 58% |  |  |  |  |  |  | 
CCCCSC(C)(C)CNCCNC(CN1CCC(C)CC1)C(C)(C)S (centres unmarked) [Compound 33, N-(2-Butylthio-2-methylpropyl)-N'-[2-mercapto-2-methyl-1-(4-methylpiperidino)methylpropyl]-ethylenediamine] | 7 min | 26% | 148 min | 74% | .smallcircle. |  |  |  |  |  | 
